# Data: publication PMC3671111, “A Phase I, open-label, randomized, crossover study in three parallel groups to evaluate the effect of Rifampicin, Ketoconazole, and Omeprazole on the pharmacokinetics of THC/CBD oromucosal spray in healthy volunteers” (SpringerPlus, 2013)
# Where “and” joins values, the source holds several entries; their conditions need not be identical. Equal entries are not always repeated. Marks after values point to notes of the source that are not given here.
# What was measured:
# [1] = male, human, in vivo, 5 days
# [2] = in normal dosing; approximately; no reference given; cited from earlier work
# [3] = Peak plasma concentration of CBD in normal dosing
# Description: However, to investigate the potential interactions of THC and CBD with drugs which also interact with the CYP450s CYP3A4 and CYP2C19, various known inducers/inhibitors of these isoenzymes were employed and the pharmacokinetics (PKs) of their co-administration with THC/CBD spray evaluated.
# [4] = Phase I drug-drug interaction PK, Group 1: THC/CBD spray alone or with rifampicin, plasma by GC-MS; design: k el / half-life: dose or concentration left out as unconfirmed; conditions: for CL/F / Varea/F: n = 12, mean (SD)
# Method: (§1) Subjects received rifampicin on Days 1-9. […] Subjects received ketoconazole on Days 1-4.
# (§2) Blood samples were collected at specified times and stored on ice (except rifampicin PK samples which were stored in iced water) prior to processing and storage. Plasma samples were separated by centrifugation (approximately 2500 rpm × 15 minutes at 4°C). Samples were stored in 4 mL amber glass screw top glass vials with PTFE lined screw caps labelled with Guys Drug Research (Quintiles Limited) labels. The aliquots were stored in clearly labelled containers in a freezer set at or below -20°C, until shipped for assay. Samples were shipped on dry ice at the appropriate time-points.
# (§3) The assay validation was undertaken by Advanced Bioanalytical Service Laboratories (London, UK), who developed the technique after reviewing the literature, which was based on the methodology adopted by three different groups (Foltz et al. [1983]; Goodall & Basteyns [1995]; Kemp et al. [1995]), and designed with reference to FDA guidelines for industry (FDA Guidance for Industry [2012]). The method utilised protein precipitation, solvent extraction and derivatisation for the sample preparation and then sample analysis by capillary gas chromatography and detection by a mass spectrometer (GC-MS). The validation procedure investigated the calibration model with the best regression fit over the concentration range 0.1 - 100 ng/mL for CBD, THC and 11-OH-THC, as well as precision and accuracy of the method, stability, carry-over, and specificity.
# (§4) Human plasma from healthy volunteers was used to prepare the standards and quality control (QC) samples, with analytes extracted using hexane/ethyl acetate (7:1 ratio), derivatised with N,O-Bis(trimethylsilyl)trifluoroacetamide. Analytic grade THC (Sigma, UK), CBD (Sigma, UK) and 11-OH-THC (Radian International and Cerillant, UK) were obtained, and three sets of CBD, THC and 11-OH-THC were used to support the study. Deuterated THC-d3 (Sigma, UK) was used as the internal standard. The GC-MS equipment was a Hewlett Packard 6890 Gas Chromatograph attached to a Hewlett Packard 5973 Mass Selective Detector. Data handling was carried out using an MS Chemstation System and the peak area ratio of the analytes to the internal standard was calculated in Excel (2000). The concentrations were calculated from the ratio data using least squares ln(y) on ln(x) regression performed in Excel (2000), and were then checked manually. Regression analysis was undertaken to find the regression model that best described the calibration data (for details, see ([Miller & Miller 1992])).
# (§5) A 0.5 mL aliquot of test sample, QC or blank plasma was placed into a test tube. The blank plasma was spiked with 50 μL of the appropriate standard solution to produce the calibration standards. 50 μL of the internal standard was added to each test tube. The samples were then diluted by the addition of 500 μL of 0.1% (w/v) ascorbic acid and the protein precipitated by the addition of 1.0 mL of acetonitrile. The proteins were removed by centrifugation and the supernatant concentrated to 1 mL using nitrogen at 50 °C. The samples were then basified by the addition of 300 μL of 5M sodium hydroxide and the analytes extracted by the addition of 2.0 mL of 7:1 hexane:ethyl acetate. After mixing for 16 minutes the tubes were centrifuged and the top layer transferred into clean 3 dram vials. The solvent was removed using nitrogen at 70 °C and the dried extract resuspended in 100 μL of BSTFA and transferred to microvials, capped and placed at 70 °C for 30 minutes to derivatise the analytes. The microvials were then cooled and loaded onto the autosampler tray for analysis where 1 μL was injected onto the GC-MS system.
# CYP2C19 = system: CYP2C19; design: method as in GW unpublished data; conditions: one range printed for CYP3A4 and CYP2C19; ref GW unpublished data; read-out: IC50, inhibitory effect on CYP2C19; cited from earlier work
# [5] = Phase I drug-drug interaction PK, Group 2: THC/CBD spray alone or with ketoconazole, plasma by GC-MS; design: k el: dose or concentration left out as unconfirmed; conditions: for CL/F / Varea/F: mean (SD)
# Method: as §1, §2, §3, §4, §5
# [6] = Phase I drug-drug interaction PK, Group 3: THC/CBD spray alone or with omeprazole, plasma by GC-MS; conditions: for CL/F / Varea/F: n = 12, mean (SD); for Cmax and AUC % Co-efficient of Variation (CV%) range: inter-subject variability
# Method: as §1, §2, §3, §4, §5
# CYP3A4 = system: CYP3A4; design: method as in GW unpublished data; conditions: one range printed for CYP3A4 and CYP2C19; ref GW unpublished data; read-out: IC50, inhibitory effect on CYP3A4; cited from earlier work
# [7] = Rifampicin and THC/CBD spray vs THC/CBD spray alone, no-interaction range 0.80 to 1.25
# [8] = THC/CBD spray 4 sprays and rifampicin 600 mg after repeated daily dosing, plasma
# [9] = THC/CBD spray alone, single dose 4 sprays (10.8/10 mg), rifampicin group, plasma
# [10] = THC/CBD spray co-administered with rifampicin vs alone
# [11] = Ketoconazole and THC/CBD spray vs THC/CBD spray alone, no-interaction range 0.80 to 1.25
# [12] = THC/CBD spray 4 sprays and ketoconazole 400 mg at end of 5-day dosing period, n = 11, plasma
# [13] = THC/CBD spray alone, single dose 4 sprays (10.8/10 mg), ketoconazole group, n = 12, plasma
# [14] = THC/CBD spray co-administered with ketoconazole vs alone
# [15] = Omeprazole and THC/CBD spray vs THC/CBD spray alone, no-interaction range 0.80 to 1.25
# [16] = THC/CBD spray 4 sprays and omeprazole 40 mg at end of 6-day dosing period, plasma
# [17] = THC/CBD spray alone, single dose 4 sprays (10.8/10 mg), omeprazole group, plasma
# [18] = THC/CBD spray co-administered with omeprazole vs alone
# [19] = male, human, plasma, oral, 40 mg
structure (smiles),measurement,setting,value
"COc1ccc2[nH]c([S+]([O-])Cc3ncc(C)c(OC)c3C)nc2c1 (stereo not drawn) [Omeprazole, omeprazole]",Dizziness (TEAE),[1],0 No. of subjects (%)
same,Dizziness postural (TEAE),[1],0 No. of subjects (%)
same,Dry mouth (TEAE),[1],0 No. of subjects (%)
same,Headache (TEAE),[1],1 (8) No. of subjects (%)
same,Somnolence (TEAE),[1],0 No. of subjects (%)
"C=C(C)[C@@H]1CCC(C)=C[C@H]1c1c(O)cc(CCCCC)cc1O [CBD, cannabidiol]",Peak plasma concentrations,[2],[…]
same,CL/F,[4]; [8],5966 L/h and 5966 (3713)^b L/h
same,Varea/F,[4]; [8],34790 (20036)^b L
same,CL/F,[4]; [9],2817 L/h and 2817 (1913) L/h
same,Varea/F,[4]; [9],28312 (19355) L
same,% change in mean t1/2,[4]; [10],-62%
same,% change in median Tmax,[4]; [10],+50%
same,Change in mean Cmax,[4]; THC/CBD spray with rifampicin vs THC/CBD spray alone,-52%
same,Change in mean CL/F,[4]; after multiple dose rifampicin treatment vs THC/CBD spray alone,+112%
same,AUC(0-inf),"[4]; male, human, plasma",2.15 ng·h/mL
same,AUC(0-t),"[4]; male, human, plasma",1.31 ng·h/mL
same,Cmax,"[4]; male, human, plasma",0.5 ng/mL
same,Tmax,"[4]; male, human, plasma",1.5 h
same,half-life,"[4]; male, human, plasma",4.13 h
same,k el,"[4]; male, human, plasma",5.44e-05 s⁻¹
same,Tmax,"[4]; male, human, plasma, oral",1 h
same,half-life,"[4]; male, human, plasma, oral",10.9 h
same,IC50,CYP2C19,6 to 9 µM
same,CL/F,[5]; [12],1731 L/h and 1731 (650)^c L/h
same,Varea/F,[5]; [12],14349 (7076)^c L
same,CL/F,[5]; [13],2998 L/h and 2998 (896)^b L/h
same,Varea/F,[5]; [13],31994 (12794)^b L
same,% change in mean Tmax,[5]; [14],+27%
same,% change in t1/2,[5]; [14],-16%
same,Change in mean Cmax,[5]; THC/CBD spray with ketoconazole vs THC/CBD spray alone,+89%
same,Change in mean CL/F,[5]; co-administered with ketoconazole vs THC/CBD spray alone,-42%
same,AUC(0-inf),"[5]; male, human, plasma, oral",6.5 ng·h/mL
same,AUC(0-t),"[5]; male, human, plasma, oral",4.83 ng·h/mL
same,Cmax,"[5]; male, human, plasma, oral",1.25 ng/mL
same,k el,"[5]; male, human, plasma, oral",3.97e-05 s⁻¹
same,Substrate for the isoenzyme CYP3A4 (conclusion from ketoconazole interaction),[5]; suggested by increased exposure with ketoconazole,substrates
same,CL/F,[6]; [16],4772 (4550) L/h
same,Varea/F,[6]; [16],24757 (16311) L
same,CL/F,[6]; [17],4741 (3845)^a L/h
same,Varea/F,[6]; [17],26298 (14532)^a L
same,% change in Tmax,[6]; [18],+9%
same,% change in t1/2,[6]; [18],+5%
same,Substrate for the isoenzyme CYP2C19 (conclusion from omeprazole interaction),[6]; at the clinically relevant dose of THC/CBD spray investigated,not substrates
same,Tmax,"[6]; male, human, plasma, oral",1.15 h
same,half-life,"[6]; male, human, plasma, oral",5.22 h
same,AUC(0-inf),[6]; [19],3.33 ng·h/mL
same,AUC(0-t),[6]; [19],2.25 ng·h/mL
same,Cmax,[6]; [19],0.73 ng/mL
same,Tmax,[6]; [19],1.25 h
same,half-life,[6]; [19],5.46 h
same,k el,[6]; [19],5.83e-05 s⁻¹
